# According to patent publication US20240408071A1, “NOVEL COMBINATION OF SEROTONIN RECEPTOR (5-HTR2B) ANTAGONIST AND AN IMMUNOMODULATOR AND CHEMOTHERAPEUTIC DRUGS FOR INHIBITION OF CANCER” (NATIONAL CENTRE FOR CELL SCIENCE, priority 2021, published 2024):
# Key:
# [1] = target: 5-HTR2B receptor subtype (Homo sapiens, UniProt P41595); conditions: more specific to 5-HTR2B; cited from earlier work
# [2] = compared with other 5-HTR2B antagonists; cited from earlier work
# [3] = tested on: OVA-specific CD8 and CD4 T cells in MC38-cOVA tumor; assay: OVA-specific T cell response in MC38-cOVA tumor-bearing mice (CFSE, tetramer flow cytometry); type: in vivo
# Protocol: FIG. 11 depicts the effect of 5-HTR antagonists on the antigen-specific CTL response MC38 tumor model in mice: (A) Representative experimental plan of the adoptive transfer experiment where NRG mice. In brief, NRG mice were inoculated with MC38 on one flank and B16F10 cells on the other. These mice received total lymph node cells from naïve C57BL/6J mice or MC38 tumor-bearing control or RS-127445 treated mice. (B) Tumor volume data from the above-described experiment was measured and plotted (C) Immunocytochemistry data showing expression of H2-Kb-[…]^+ (red) on MC38 cells transfected with pCL-neo-OVA plasmid on the right side and MC38 cells without transfection. DAPI is used as a counterstain. (D-E) C7BL/6J mice were inoculated with an MC38-ova cell line and treated with RS-127445 or left untreated. After 10 days of such treatment, Total lymph node cells were harvested tagged with CFSE, and cultured in the presence of ovalbumin protein (50 μg/ml) for 5 days. After 5 days cells were checked for CFSE expression by flow cytometry to check proliferation. Here is the data (D) showing the CFSE in CD8^+ cells. The statistical data of the total percentage of CFSE^− CD8 T cells corresponding with the percentage of proliferated CD8 T cells were plotted. (F-G) Flow cytometric data and statistical analysis of the percentage of intra-tumoral H-2Kb^− […] tetramer^+ CD8 population from the control and RS-127445 treated MC38-ova tumor-bearing mice. (H-I) Flow cytometric data and statistical analysis of the percentage of intra-tumoral H-2Kb^− […] tetramer^+CD69^+ activated CD8 population from the control and RS-127445 treated MC38 tumor-bearing mice. (J-K) Flow cytometric data and statistical analysis of the percentage of intra-tumoral H-2K^b-[…] tetramer^+IFN-γ^+Granzyme B^+CD8 T cell population from the control and RS-127445 treated MC38 tumor-bearing mice. (D-E) Histogram overlay and statistical data comparison showing relative MFI of granzyme B on IFN-γ^+ OT-I-tetramer^+ CD8a^+ T cells from MC38-ova tumor of control and RS-127445 treated mice. The data shown are representative of one of the two independent experiments. All the statistical analysis was performed using either Student's t-test or two-way ANOVA using Sidak's multiple comparison test. *P<0.05; **P<0.01; […]; ****P<0.0001 Error bar represents mean±standard error of means (SEM).
# FIG. 12 depicts that 5-HTR2B signalling affects the antigen-specific proliferation of CD4 T cells: (A-B) Total CD4 T cells were harvested from the lymph node of OT-II mice and they were tagged with CFSE and cultured in vitro in the presence or absence of OT-II peptide (Ova323-339), IL-2, 5-HTR2B agonist BW-723C86 (10 μM), Serotonin (20 μM) or 5-HTR2B antagonist RS-127445 (15 μM) for 5 days. After 5 days the proliferation of OT-II tetramer^+ CD4 T cells was measured and plotted as histogram overlay (A) or as statistical data (B). (C-D) Flow cytometric data and statistical analysis of the percentage of intra-tumoral OT-II-tetramer^+ IFNγ^+ CD4 T cell population from the control and RS-127445 treated MC38-ova tumor-bearing mice. (E-F) Flow cytometric data and statistical analysis of the percentage of intra-tumoral OT-II-tetramer^+ IFNγ^+ CD4 T cell population from the control and RS-127445 treated MC38-ova tumor-bearing mice. (G) Histogram overlay and statistical data comparison showing relative MFI of IL-10 on OT-II-tetramer^+ CD4^+ T cells from MC38-ova tumor of control and RS-127445 treated mice. All the statistical analysis was performed using either Student's ‘t’ test or two-way ANOVA using Sidak's multiple comparison test. *P<0.05; **P<0.01; […]; ****P<0.0001 Error bar represents mean±standard error of means (SEM).
# A simple adoptive transfer experiment was performed to study the enhancement of CTL response in general or antigen-specific. […]
# Chain of 5-HTR2B receptor subtype (P41595 whole entry): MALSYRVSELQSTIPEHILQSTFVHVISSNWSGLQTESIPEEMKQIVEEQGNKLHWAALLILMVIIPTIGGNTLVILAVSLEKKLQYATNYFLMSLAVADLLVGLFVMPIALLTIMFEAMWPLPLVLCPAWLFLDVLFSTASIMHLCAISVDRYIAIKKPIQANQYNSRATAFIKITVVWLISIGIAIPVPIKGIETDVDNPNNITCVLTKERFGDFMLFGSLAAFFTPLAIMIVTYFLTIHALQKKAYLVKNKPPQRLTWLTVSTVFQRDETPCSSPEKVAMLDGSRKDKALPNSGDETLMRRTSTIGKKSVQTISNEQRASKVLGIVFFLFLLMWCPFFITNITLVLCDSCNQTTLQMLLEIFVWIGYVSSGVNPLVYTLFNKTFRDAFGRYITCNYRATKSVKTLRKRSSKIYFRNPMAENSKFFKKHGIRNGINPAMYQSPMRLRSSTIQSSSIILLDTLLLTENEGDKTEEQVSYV
smiles,measurement,setting,value
CC(C)c1cc(-c2ccc(F)c3ccccc23)nc(N)n1 [RS-127445],specificity to the 5-HTR2B receptor subtype,[1],~1000 times
same,bioavailability,[2],higher bioavailability
same,Ova-specific IFNγ+ CD4 T cells in the tumor,"[3]; MC38-cOVA tumor, OT-II tetramer (FIG. 12C-D)",increased
same,Ova-specific IL-10+ CD4 T cells in the tumor,"[3]; MC38-cOVA tumor, OT-II tetramer (FIG. 12E-G)",reduced
same,CD69+ activated OVA-specific CTLs percentage in the tumor,[3]; OT-I tetramer (FIG. 11H-I),enhanced
same,IFNγ+ granzyme B+ effector OVA-specific CTLs percentage in the tumor,[3]; OT-I tetramer (FIG. 11J-M),enhanced
same,overall percentage of OVA-specific CD8 T cell in the tumor,"[3]; OT-I tetramer, MC38-ova tumor (FIG. 11F-G)",did not enhance the overall percentage
same,proliferation of CD8 T cells in the presence of OVA in vitro,"[3]; cells from treated MC38-cOVA tumor-bearing mice, ovalbumin 50 μg/ml, 5 days, CFSE (FIG. 11D-E)",proliferated at a better rate
